What was measured:
Type in all cases: biochemical
[1] = molecular target: T1, UGT 2B17 (Homo sapiens, UniProt O75795); experiment: UGT activity: utilization of substrate by recombinant UGT 2B17 Supersomes; details: 2 hour incubation at 37° C., plus vs minus UDPGA
T1 construct: purchased BD Gentest; host or cells: insect cells (microsomes)
T1 sequence (O75795 24-530): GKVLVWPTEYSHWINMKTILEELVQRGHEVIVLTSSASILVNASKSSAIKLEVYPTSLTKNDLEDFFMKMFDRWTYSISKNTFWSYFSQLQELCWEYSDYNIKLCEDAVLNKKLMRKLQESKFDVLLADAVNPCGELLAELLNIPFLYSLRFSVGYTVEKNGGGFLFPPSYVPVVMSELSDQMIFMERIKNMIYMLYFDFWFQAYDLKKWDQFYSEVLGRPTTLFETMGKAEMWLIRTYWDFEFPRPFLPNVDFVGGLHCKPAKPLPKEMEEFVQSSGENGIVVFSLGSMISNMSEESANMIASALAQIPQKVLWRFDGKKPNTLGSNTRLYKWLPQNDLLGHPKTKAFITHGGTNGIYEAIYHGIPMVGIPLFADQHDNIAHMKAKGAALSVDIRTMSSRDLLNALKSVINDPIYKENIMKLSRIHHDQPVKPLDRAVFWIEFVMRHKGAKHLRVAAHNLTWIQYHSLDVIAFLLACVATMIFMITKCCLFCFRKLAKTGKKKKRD
Description: (§1) The invention includes a method of determining activity of the uridine 5′-diphospho-glucuronosyltransferase (UDP-glucuronosyltransferase, or UGT) family enzymes in vitro. Briefly, UGT enzymes from overexpressed insect microsomes (Supersomes™, BD Gentest™) or animal tissue microsomes (Xenotech, BD Gentest™) were incubated with a cyanobenzothiazole substrate of the invention and the cofactor UDP-glucuronic acid (UDPGA) at 37° C. in buffer at physiological pH containing MgCl2 and alamethicin (typically, 50 mM TES, pH 7.5, 8 mM MgCl2, 4 mM UDPGA (Sigma) and 25 μg/mL alamethicin (Sigma)). Following the UGT enzyme reaction, an equal volume of P450-Glo Luciferin Detection Reagent (Promega) containing 15-30 mM D-cysteine-HCl.H2O (Sigma) was added and the plate was mixed and incubated at room temperature, typically for 20-30 minutes. […]
(§2) During this incubation, the cysteine reacts with the cyanobenzathiozole substrate to yield a D-luciferin derivative. […] Therefore, activity of the UGT enzyme can be measured by analyzing the difference (lower or no output) in relative light units (RLU) of a sample in which glucuronidation occurs compared to a sample that was run under the same conditions with no added UDPGA cofactor. […]
(§3) Reactions were assembled in a white 96-well plate. […] After the incubation was completed, the plate was read on a Veritas™ luminometer (Turner BioSystems, Inc.; Sunnyvale, Calif.). […]

[2] = molecular target: T2, UGT 1A8 (Homo sapiens, UniProt Q9HAW9); experiment: UGT activity: utilization of substrate by recombinant UGT 1A8 Supersomes; details: 2 hour incubation at 37° C., plus vs minus UDPGA, background corrected
T2 construct: purchased BD Gentest; host or cells: insect cells (microsomes)
T2 sequence (Q9HAW9 26-530): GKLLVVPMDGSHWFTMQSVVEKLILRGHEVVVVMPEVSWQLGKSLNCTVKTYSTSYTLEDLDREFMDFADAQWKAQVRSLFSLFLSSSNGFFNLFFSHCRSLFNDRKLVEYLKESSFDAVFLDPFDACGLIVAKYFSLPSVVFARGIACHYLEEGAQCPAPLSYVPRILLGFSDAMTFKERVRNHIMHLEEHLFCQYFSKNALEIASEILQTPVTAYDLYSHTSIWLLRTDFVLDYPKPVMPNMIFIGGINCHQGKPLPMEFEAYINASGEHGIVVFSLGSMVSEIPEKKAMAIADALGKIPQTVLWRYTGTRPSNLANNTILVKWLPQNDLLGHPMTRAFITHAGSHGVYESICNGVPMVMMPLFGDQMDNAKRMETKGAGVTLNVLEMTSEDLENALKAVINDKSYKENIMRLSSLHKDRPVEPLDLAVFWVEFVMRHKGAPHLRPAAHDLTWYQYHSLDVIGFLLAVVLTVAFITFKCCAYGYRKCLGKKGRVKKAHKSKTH
Description: as §1, §2, §3

[3] = molecular target: T3, UGT 2B15 (Homo sapiens, UniProt P54855); experiment: UGT activity: utilization of substrate by recombinant UGT 2B15 Supersomes; details: 2 hour incubation at 37° C., plus vs minus UDPGA
T3 construct: purchased BD Gentest; host or cells: insect cells (microsomes)
T3 sequence (P54855 24-530): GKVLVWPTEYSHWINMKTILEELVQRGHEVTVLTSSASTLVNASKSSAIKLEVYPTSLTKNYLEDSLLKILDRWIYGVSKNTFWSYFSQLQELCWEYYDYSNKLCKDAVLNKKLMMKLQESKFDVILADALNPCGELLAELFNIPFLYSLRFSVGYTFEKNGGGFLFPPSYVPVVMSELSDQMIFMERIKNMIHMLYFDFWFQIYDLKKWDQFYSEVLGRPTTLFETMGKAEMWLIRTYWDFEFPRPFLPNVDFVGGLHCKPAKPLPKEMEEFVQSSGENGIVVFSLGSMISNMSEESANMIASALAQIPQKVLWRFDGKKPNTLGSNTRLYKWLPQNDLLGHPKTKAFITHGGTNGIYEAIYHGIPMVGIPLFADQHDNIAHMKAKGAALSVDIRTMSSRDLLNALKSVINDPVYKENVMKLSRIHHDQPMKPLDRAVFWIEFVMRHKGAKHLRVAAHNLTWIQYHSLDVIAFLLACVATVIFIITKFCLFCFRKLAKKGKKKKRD
Description: as §1, §2, §3

Compound | utilization by UGT 2B17 (in words) [1] | % utilization by UGT 1A8 [2] | utilization by UGT 2B15 (in words) [3]
Cc1cc(O)cc2sc(C#N)nc12 [compound 3138] | detectable levels of utilization above background | over 50% | detectable levels of utilization above background
Cc1cc(O)cc2sc(C3=NC(C(=O)O)CS3)nc12 (stereo not drawn) [compound 3478] | only UGT 1A6 was able to utilize compound 3478 to any appreciable extent | ≤ 15% | only UGT 1A6 was able to utilize compound 3478 to any appreciable extent
